Like-named read-outs stand apart in the source and are kept apart here.
Experiments:
786-O-Hif-Luc cells = assay: Luciferase assay (HIF responsive element reporter); conditions: 24 h
Method: A pool of infected cells were then selected against 2 μg/mL of puromycin (P8833, Sigma) for 10 days followed by limited dilution to select single clones.
Each concentration was tested in triplicate. After about 24 hours, luciferase activity was determined using ONE-Glo Luciferase Assay Reagent (E6110, Promega) following the manufacturer's recommended procedure. EC50 were calculated using Dotmatics software.

[1] = biological target: T1, HIF-2α HIS TAG-PASB Domain (Homo sapiens, UniProt Q99814); assay: HIF-2α Scintillation Proximity Assay (SPA); type: binding; conditions: displacement of tritiated probe Compound 183
T1 construct: 100 nM HIF-2α HIS TAG-PASB Domain
Method: The total assay volume was about 100 μL in the following configuration: 2 μL compound in 100% DMSO, 88 μL buffer with protein and probe and 10 μL of SPA beads. […] The percent inhibition was determined and IC50 values were calculated using the Dotmatics system based on the following equation: % inhibition=[(high control−sample)/(high control−low control)]×100.

786-O cells = assay: VEGF ELISA assay; type: cell-based; conditions: Homo sapiens, 786-0
Method: Each concentration was plated in duplicate. About 20 hours later, medium was removed by suction and each well was supplied with 180 μL of growth medium. About 20 µl freshly-made 10× compound stocks were added to each well. […] The EC50 was calculated by GraphPad Prism using the dose-response-inhibition (four parameter) equation. The cell-seeded plate was then subjected to CellTiter-Glo luminescence cell viability assay (Promega) by adding 50 μL of Celltiter Glo reagent into each well and shaking the plate for 8 minutes at 550 rpm (Thermomixer R, Eppendorf) then the luminescence signal immediately read in a plate reader (3 second delay, 0.5 second/well integration time, Synergy 2 multi Detection Microplate reader).

[2] = read-out: Mean Luciferase EC50 (nM)
[3] = read-out: Mean Luciferase EC50 (nM), 786-O-Hif-Luc cells, about 24 hours

T1 sequence (Q99814 240-350 limits assumed): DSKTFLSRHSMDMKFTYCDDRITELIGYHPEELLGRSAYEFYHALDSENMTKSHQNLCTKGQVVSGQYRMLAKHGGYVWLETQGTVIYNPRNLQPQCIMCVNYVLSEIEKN

| Structure (SMILES) | EC50 (786-O-Hif-Luc cells; [2]) [nM] | IC50 [1] [nM] | EC50 (786-O-Hif-Luc cells; [3]) [nM] | further results |
| --- | --- | --- | --- | --- |
| CNS(=O)(=O)c1ccc(Oc2cc(F)cc(F)c2)c2c1[C@H](O)C(F)(F)C2 [Compound 251] | 50 to 249 |  |  |  |
| N#Cc1cc(F)cc(Oc2ccc(S(N)(=O)=O)c3c2CC(F)(F)[C@H]3O)c1 [Compound 252] | 50 to 249 |  |  |  |
| CNS(=O)(=O)c1ccc(Oc2cc(F)cc(C#N)c2)c2c1[C@H](O)C(F)(F)C2 [Compound 254] | 50 to 249 |  |  |  |
| NS(=O)(=O)c1ccc(Oc2cc(F)cc(F)c2)c2c1[C@H](O)C(F)(F)C2 [Compound 256] | < 50 |  |  |  |
| CS(=O)(=O)c1ccc(Oc2cc(F)cc(C#N)c2)c2c1[C@H](O)[C@@H](F)C2 [Compound 271] | 250 to 1000 |  |  |  |
| CS(=O)(=O)c1ccc(Oc2cc(F)cc(C#N)c2)c2c1[C@H](O)[C@H](F)[C@@H]2F [Compound 289, 3-[(1S,2S,3R)-2,3-difluoro-1-hydroxy-7-methylsulfonyl-indan-4-yl]oxy-5-fluoro-benzonitrile] | < 50 |  |  |  |
| N#Cc1cc(F)cc(Oc2ccc(S(=O)(=O)C(F)(F)F)c3c2CC(F)(F)[C@H]3N)c1 [Compound 290] | 50 to 249 |  |  |  |
| N#Cc1cc(F)cc(Oc2ccc(S(N)(=O)=O)c3c2[C@@H](F)C(F)(F)[C@H]3O)c1 [Compound 338] | < 50 |  |  |  |
| N#Cc1cc(F)cc(Oc2ccc(S(N)(=O)=O)c3c2[C@H](F)C(F)(F)[C@H]3O)c1 [Compound 339] | 250 to 1000 |  |  |  |
| N#Cc1cc(F)cc(Oc2ccc3c(c2C(F)F)[C@@H](N)C(F)(F)S3(=O)=O)c1 [Compound 387] |  | 50 to 249 |  |  |
| O=S(=O)(c1ccc(-c2cccc(O)c2)c2c1[C@H](O)C(F)(F)C2)C(F)(F)F [Compound 564] |  | > 1000 |  |  |
| O=S(=O)(c1ccc(OC2CCNCC2)c2c1C(O)C(F)(F)C2)C(F)(F)F (stereo not shown) [Compound 606] |  | > 1000 |  |  |
| O=S(=O)(c1ccc(OC2CC(O)C2)c2c1[C@H](O)C(F)(F)C2)C(F)(F)F (stereo partly shown) [Compound 644] |  | 250 to 1000 | 250 to 1000 |  |
| O[C@H]1c2c(C(F)(F)F)ccc(OC(F)F)c2CC1F (stereo partly shown) [Compound 671] |  | > 1000 |  |  |
| CCCOc1ccc(S(=O)(=O)C(F)F)c2c1CC(F)(F)[C@H]2O [Compound 676] |  | 50 to 249 | 50 to 249 |  |
| O=S(=O)(c1ccc(OCC(F)F)c2c1[C@H](O)C(F)(F)C2)C(F)F [Compound 677] |  | < 50 | 50 to 249 |  |
| CCCOc1ccc(C2CC2)c2c1CC(F)(F)C2O (stereo not shown) [Compound 685] |  | > 1000 |  |  |
| N#CC1CCc2c(OCC(F)F)ccc(C(F)(F)F)c21 (stereo not shown) [Compound 691] |  | > 1000 |  |  |
| O[C@H]1c2c(C(F)(F)F)ccc(OCC(F)F)c2C[C@H]1F [Compound 696] |  | 50 to 249 | 50 to 249 |  |
| CC(C)(C)OC(=O)N[C@H]1C[C@@H](Oc2ccc(S(=O)(=O)C(F)(F)F)c3c2CC(F)(F)[C@H]3O)C1 [Compound 722] |  | > 1000 | > 1000 |  |
| O=S(=O)(c1ccc(OC[C@@H]2CC2(F)F)c2c1[C@H](O)C(F)(F)C2)C(F)(F)F [Compound 728] |  | < 50 | < 50 |  |
| O=S(=O)(c1ccc(O[C@@H]2CCCc3cn[nH]c32)c2c1[C@H](O)C(F)(F)C2)C(F)(F)F [Compound 729] |  | > 1000 |  |  |
| O=S(=O)(CF)c1ccc(OC2CC(F)C2)c2c1[C@H](O)C(F)(F)[C@@H]2F (stereo partly shown) [Compound 742] |  |  | < 50 | EC50 (786-O cells): < 50 nM |
| O=S(=O)(CF)c1ccc(O[C@H]2C[C@H](F)C2)c2c1[C@H](O)C(F)(F)[C@@H]2F [Compound 742] |  | < 50 |  |  |
| CS(=O)(=O)c1ccc(OC[C@H]2CC2(F)F)c2c1[C@H](O)C(F)(F)[C@@H]2F [Compound 769] |  | 50 to 249 | 250 to 1000 |  |
| CS(=O)(=O)c1ccc(OC2CCOCC2)c2c1[C@H](O)C(F)(F)C2 [Compound 775] |  | 250 to 1000 | 250 to 1000 |  |
| N#C[C@H]1C[C@H](Oc2ccc(S(=O)(=O)C(F)(F)F)c3c2CC(F)(F)C3O)C1 (stereo partly shown) [Compound 786] |  | < 50 | < 50 |  |
| CS(=O)(=O)c1ccc(OC2CCOCC2)c2c1[C@H](O)C(F)(F)[C@@H]2F [Compound 796] |  | < 50 | 250 to 1000 |  |
| O=S(=O)(c1ccc(OC2CCCNC2)c2c1C(O)C(F)(F)C2)C(F)(F)F (stereo not shown) [Compound 797] |  | > 1000 |  |  |

From patent publication US10335388B2, “Combination therapy of a HIF-2-alpha inhibitor and an immunotherapeutic agent and uses thereof” (PELOTON THERAPEUTICS, INC., priority 2015, dated 2019)
